Data set [1] addresses T1, human NUDT5 (Homo sapiens, UniProt Q9UKK9).
T1 construct: His-tag (N); made in house; host or cells: E. coli BL21 (DE3) R3 pRARE2
Nature of the data set: enzyme-coupled malachite green assay (MG assay), ADPR hydrolysis. It counts as biochemical. Particulars: for IC50: NUDT5, ADPR substrate. The source says:
We next sought to develop small molecule NUDT5 inhibitors to further probe the role of NUDT5 in ADPR metabolism. A high-throughput, screening-compatible NUDT5 inhibition assay was established using slight modifications to the aforementioned MG procedure (Fig. 2a)[15],[27]. Briefly, ADPR, NUDT5 and calf intestinal alkaline phosphatase (CIP) were combined in a coupled enzymatic assay, as described in the online methods. In turn, ADPR was hydrolyzed to AMP and R5P by NUDT5, and the released R5P was further degraded to ribose and inorganic phosphate (Pi) by CIP. Free Pi was subsequently detected using the malachite green reagent. The screen was conducted using a combination of the Chemical Biology Consortium of Sweden (CBCS) primary screening set and several commercial libraries from Enamine, TimTec, Maybridge and ChemDiv. In total, ~72 000 distinct chemical entities were screened for their potential inhibition of NUDT5 at a concentration of 10 µM (Supplementary Table 1, Supplementary Fig. 2a, b). Execution of this screening campaign was split between two different occasions. The screening performance in the two screening campaigns was excellent (average z´ factors of 0.87 and 0.85, Supplementary Fig. 2c), resulting in a hit limit as defined by the average and three standard deviations of the library compound responses of 10.1 and 18.4% inhibition, respectively (Supplementary Table 1, Supplementary Fig. 2a, b). This translated to 53 and 475 hits (0.3 and 0.8% hit rate, respectively), yielding 528 total hits from the 2 separate screening occasions.
Activity of NUDT5 and MTH1 with a panel of potential substrates [2-OH-ATP, 2-OH-dATP, 8-oxo-dGDP, GDP and 8-oxo-GTP (Jena Biosciences), 8-oxo-dGTP (TriLink Biotechnologies), dATP (ThermoFisher Scientific), dGTP, GTP and ADPR (Sigma-Aldrich)] was assessed in reaction buffer (100 mM Tris Acetate pH 7.5, 40 mM NaCl, 10 mM Mg Acetate) at 22 °C. For ADPR, alkaline phosphatase from bovine intestinal mucosa (10 U/ml; Sigma-Aldrich) was added as coupled enzyme, while other substrates were coupled to E. coli pyrophosphatase (0.2 U/mL, Sigma-Aldrich). After 30 min incubation with shaking, formed inorganic phosphate was detected by addition of malachite green reagent. Absorbance at 630 nm was read after 15 min incubation with shaking using a Hidex Sense plate reader. The potency of NUDT5 inhibitors was assessed similarly as above (and in the screening campaign) by monitoring ADPR hydrolysis; details are in the Supplementary Information.
Small molecule library composition
The screen for NUDT5 inhibitors was conducted at Chemical Biology Consortium Sweden (www.cbcs.se). Two screening campaigns completed in August 2012 and in March 2013 respectively comprised a combination of in-house and commercially available libraries, amounting to a total of 75679 compounds. The commercial compounds originate from Enamine, TimTec, MayBridge and ChemDiv. The in-house libraries were donated by Biovitrum AB, Sweden (the origin and composition is described previously)2. For long-term storage, the compounds are kept frozen at - 20°C as 10 mM solutions in dimethyl sulfoxide (DMSO) under low humidity conditions in REMP 96 Storage Tube Racks in a REMP Small-Size Store™. To facilitate screening an aliquot of the stock solutions have been transferred to Labcyte 384 LDV plates (LP-0200) to enable dispensing using an Echo 550™ acoustic liquid handler (LabCyte). For both screening campaigns 40 nl of the compound solutions were dispensed directly into columns 1-22 of the 384-well assay plates (Nunc 242757), while columns 23 and 24 were reserved for controls as outlined below. The plates were sealed with a Peelable Aluminium seal (Agilent 24210-001) using a PlateLoc thermal microplate sealer (Agilent) and kept at room temperature until used. The final compound concentration in the screen was 10 µM with a final DMSO concentration of […]
Enzymatic assay applied for screening and hit confirmation […]

Data set [2] concerns the target T2, NUDT5 in HL-60 cell lysates (Homo sapiens, UniProt Q9UKK9).
T2 construct: endogenous in cells; host or cells: HL-60
Nature of the data set: cell lysate CETSA (HT-CETSA). The settings on record: 20 µM, 83 °C. It counts as binding. The protocol:
Target engagement in cells was determined by the cellular thermal shift assay (CETSA)[29]. Briefly, cell lysate thermal shift assays were performed with 1 × 10^6 HL-60 cells per temperature/condition. Cells were collected and washed once with PBS and resuspended in TBS with protease inhibitor cocktail (Mini cOmplete, EDTA-free, Roche) at 60 µL/1 × 10^6 cells. The cells were then aliquoted and lysed by freeze-thawing three times with 3-min incubations (3x, 3 min.+3 min.) using an ethanol/dry ice bath and water bath at 37 °C. The lysates were then centrifuged at 20,000×g for 20 min at 4 °C to remove cellular debris. Supernatants were then transferred to PCR strip tubes and treated with 0.5 µL DMSO (0.8% v/v final) or 20 µM inhibitor for 20 min at room temperature. Lysates with compounds were heated at the indicated temperature in a Veriti Thermal Cycler (Applied Biosystems) for 3 min, then cooled for another 3 min at room temperature. They were then centrifuged at 20 000 × g for 20 min at 4 °C to pellet protein aggregates and 45 µL was removed and prepared for western blotting analysis.

Data set [3] has as its target T3, NUDT5 in intact HL-60 cells (Homo sapiens, UniProt Q9UKK9).
T3 construct: endogenous in cells; host or cells: HL-60
Nature of the data set: intact cell CETSA. It counts as cell-based. The settings on record: 20 µM, 83 °C. As to the method: For CETSA experiments with cells treated in culture, 1 × 10^6 HL-60 were treated with DMSO (0.1 % v/v final) or 20 µM compound for 3 h at 37 °C and 5% CO2 in a humidified incubator. T47D^WT cells were treated instead with 80 µM TH1659, 15 µM TH5423/5424 and 1.5 µM TH5427. The cells were harvested, washed twice with PBS and resuspended in TBS with protease inhibitors, as above. Heating was identical as before, except that immediately following heating, the cell suspensions were snap frozen in a dry ice/ethanol bath and freeze-thawed, as previously, to lyse cells. Centrifugation at 20 000 × g for 20 min at 4 °C removed cellular debris and protein aggregates, and lysates were prepared for western blotting.

Data set [4] has as its target T4, purified NUDT5 (Homo sapiens, UniProt Q9UKK9).
T4 construct: His-tag (N); made in house; host or cells: E. coli BL21 (DE3) R3 pRARE2
Nature of the data set: differential scanning fluorimetry (DSF). The class given is binding. Particulars: 20 µM compound; for Tm: DMSO 74; for ΔTm at 20 µM: read-out: shift in melting temperature (Tm). As to the method: Differential scanning fluorimetry (DSF)[5],[47] was performed with 5 µM purified NUDT5, 20 µM NUDT5 inhibitor and 5x Sypro Orange added per well added to a 96-well PCR plate. Each experiment was performed in duplicate. Temperature gradients from 25 to 95 °C (increasing at a rate of 1 °C per minute) were completed with readings every minute on a CFX96 Real-Time PCR machine (Bio-Rad). Melting temperatures were determined as the minimum of the negative first derivative plots with CFX Maestro software (Bio-Rad).
(In DSF a fluorescence change marks the thermal transition of the protein.)

Data set [5] can be described thus: solubility. It counts as physicochemical.
The mark [6] stands for this setting: read-out: MG assay IC50 (Biochemical IC50).

Where two headings read alike, the source gives them in different places.

Consider `O=c1cc(N2CCOCC2)oc2c(-c3ccccc3)cccc12` [LY294002, reference compound], for which the IC50 in data set [1] (read-out: MG assay IC50) is > 100000 nM.
For `Cc1cccc(-c2nnc(Cn3cnc4c3c(=O)n(C)c(=O)n4C)o2)c1` [TH1167], in data set [1] (read-out: MG assay IC50), the IC50 was 580 nM. For the same compound, the “NUDT5 stabilization in cell lysates” value in data set [2] is given as “did not show sufficient target engagement”. Moreover, the “NUDT5 stabilization in intact cells” value in data set [3] was “did not show sufficient target engagement”.
For `Cn1c(=O)c2c(ncn2Cc2nnc(-c3ccc(Cl)c(Cl)c3)o2)n(C)c1=O` [TH1533], in data set [1], the “MG assay potency compared with TH1713” value was “equipotent with TH1713”. Moreover, in data set [1] (setting [6]), the IC50 amounted to 70 nM. Also, in data set [4], the Tm was 79 °C and the ΔTm at 20 µM stood at 5 °C. In data set [3], the “NUDT5 stabilization in intact cells” value is given as “showed activity by CETSA in intact cells”. The “solubility” value in data set [5] was “very poor solubility”.
As for `Cc1cccc(-c2nnc(Cn3c(N(C)C)nc4c3c(=O)n(C)c(=O)n4C)o2)c1` [TH1713], the “fold greater potency over TH1167” value in data set [1] (MG assay) is “more than 8 fold”. Moreover, in data set [1] (setting [6]), the IC50 stood at 70 nM. Further, in data set [4], the Tm was found to be 79 °C and the ΔTm at 20 µM came to 5 °C. The “NUDT5 stabilization in intact cells” value in data set [3] is listed as “only TH1533 showed activity by CETSA in intact cells”. Moreover, in data set [5], the “solubility” value is listed as “very poor solubility”.
With `COc1ccc2c(c[n+](C)c3c4cc5c(cc4ccc23)OCO5)c1OC` [chelerythrine, reference compound], in data set [1] (read-out: MG assay IC50), the IC50 is > 100000 nM.
Regarding `O=c1cc(-c2ccccc2)oc2ccccc12` [flavone, reference compound], the IC50 in data set [1] (read-out: MG assay IC50) is > 100000 nM.
Turning to `O=C(O)/C=C/c1ccc(O)cc1` [p-coumaric acid, reference compound], in data set [1] (read-out: MG assay IC50), the IC50 is > 100000 nM.

In general, IC50 refers to the point on the concentration scale where inhibition reaches its midpoint. A word on the Tm: it is the temperature at which the thermal transition is half complete.

The record behind these values is publication PMC5772648, “Targeted NUDT5 inhibitors block hormone signaling in breast cancer cells” (Nature Communications, 2018).
